One may read the solubility as how much of the substance goes into solution per volume. A higher solubility goes with a readily soluble substance.

The record followed here is patent US20040023853A1, “Antagonistic peptides of prostaglandin E2 receptor subtype EP4” (priority 2002, published 2004).

≈ marks a conversion by molar mass, not a printed value. Non-standard residues stand in square brackets, D forms with d. Residues, ends and D or L forms follow the SMILES beside them. Bip = N[C@@H](Cc1ccc(-c2ccccc2)cc1)C(=O)O; dBip = N[C@H](Cc1ccc(-c2ccccc2)cc1)C(=O)O

Tested on in one data set: not listed separately
As to the kind of experiment: Solubility of the peptides in water. It is filed as physicochemical.
Details: not given
Here is the method: Several peptides, based on the structure of 213.15 (SEQ ID NO: 1), were synthesized using F-moc chemistry and the solid phase Merrifield peptide method. The purity of the trifluoroacetate salts of these peptides was assessed by HPLC and mass spectroscopy. The general synthesis methods will be better understood by referring to the following treatises: “Solid phase peptide synthesis”, Stewart & Young, W. H. Freeman Co. San Francisco, 1969; “The proteins”, Erikson and Merrifield, Vol. 2. (ed. Neurath & Hill), Academic Press, New York. 1976.
On to `CC(C)C[C@@H](NC(=O)[C@@H](C)NC(=O)[C@@H](CCC(=O)O)NC(=O)[C@@H](Cc1ccc(O)cc1)NC(=O)[C@@H](CCC(=O)O)NC(=O)[C@@H](CO)NC(=O)[C@H](NC(=O)[C@H](N)Cc1ccc(-c2ccccc2)cc1)[C@H](C)O)C(=O)O` [Peptide 213.15, (bip)tseyeal] (H-[dBip][dT][dS][dE][dY][dE][dA][dL]-OH; N-terminus and C-terminus assumed), for which the “solubility (in words)” value is “poor solubility”.

Still in this data set, the particulars now being: determined in water.
`CC(C)C[C@@H](NC(=O)[C@@H](C)NC(=O)[C@@H](CCC(=O)O)NC(=O)[C@@H](Cc1ccc(O)cc1)NC(=O)[C@@H](CCC(=O)O)NC(=O)[C@@H](CO)NC(=O)[C@H](NC(=O)[C@@H](N)Cc1ccc(-c2ccccc2)cc1)[C@H](C)O)C(=O)N[C@@H](CCCCN)C(=O)N[C@@H](CCCCN)C(=O)O` [Peptide 213.27, (Bip)tseyealKK] (H-[Bip][dT][dS][dE][dY][dE][dA][dL]KK-OH; N-terminus and C-terminus assumed) registered a solubility of 23 mg/mL (≈ 17.8 mM).

`CC(C)C[C@H](NC(=O)[C@@H](C)NC(=O)[C@@H](CCC(=O)O)NC(=O)[C@@H](Cc1ccc(O)cc1)NC(=O)[C@@H](CCC(=O)O)NC(=O)[C@@H](CO)NC(=O)[C@H](NC(=O)[C@H](N)Cc1ccc(-c2ccccc2)cc1)[C@H](C)O)C(=O)N[C@@H](CCCCN)C(=O)N[C@@H](CCCCN)C(=O)O` [Peptide 213.28, (bip)tseyeaLKK] (H-[dBip][dT][dS][dE][dY][dE][dA]LKK-OH; N-terminus and C-terminus assumed) displayed a solubility of 20 mg/mL (≈ 15.5 mM).

For `C[C@H](O)[C@@H](NC(=O)[C@H](N)Cc1ccc(-c2ccccc2)cc1)C(=O)N[C@H](CO)C(=O)N[C@H](CCC(=O)O)C(=O)N[C@H](Cc1ccc(O)cc1)C(=O)N[C@H](CCC(=O)O)C(=O)N[C@H](CO)C(=O)N[C@@H](CCCCN)C(=O)O` [Peptide 213.26, (bip)tseyesK] (H-[dBip][dT][dS][dE][dY][dE][dS]K-OH; N-terminus and C-terminus assumed), the solubility was found to be 8 mg/mL (≈ 7.5 mM).

As for `CC(C)C[C@@H](NC(=O)[C@@H](C)NC(=O)[C@@H](CCC(=O)O)NC(=O)[C@@H](Cc1ccc(O)cc1)NC(=O)[C@@H](CCC(=O)O)NC(=O)[C@@H](CO)NC(=O)[C@H](NC(=O)[C@H](N)Cc1ccc(-c2ccccc2)cc1)[C@H](C)O)C(=O)O` [Peptide 213.15, (bip)tseyeal] (H-[dBip][dT][dS][dE][dY][dE][dA][dL]-OH; N-terminus and C-terminus assumed), the concentration in solution (solubility) was 0.2 mg/mL (≈ 0.193 mM). Against the preceding molecule, the solubility is about 40-fold lower.

In turn, `CC(C)C[C@@H](NC(=O)CNC(=O)[C@@H](CCC(=O)O)NC(=O)[C@@H](Cc1ccc(O)cc1)NC(=O)[C@@H](CCC(=O)O)NC(=O)[C@@H](CO)NC(=O)[C@H](NC(=O)[C@H](N)Cc1ccc(-c2ccccc2)cc1)[C@H](C)O)C(=O)N[C@@H](CCCCN)C(=O)O` [Peptide 213.20, (bip)tseyeglK] (H-[dBip][dT][dS][dE][dY][dE]G[dL]K-OH; N-terminus and C-terminus assumed) yielded a solubility of 1.15 mg/mL (≈ 1 mM).

In turn, `C[C@H](O)[C@@H](NC(=O)[C@H](N)Cc1ccc(-c2ccccc2)cc1)C(=O)N[C@H](CO)C(=O)N[C@H](CCC(=O)O)C(=O)N[C@H](Cc1ccc(O)cc1)C(=O)N[C@H](CCC(=O)O)C(=O)N[C@H](C)C(=O)N[C@@H](CCCCN)C(=O)O` [Peptide 213.25, (bip)tseyeaK] (H-[dBip][dT][dS][dE][dY][dE][dA]K-OH; N-terminus and C-terminus assumed) displayed a solubility of 6 mg/mL (≈ 5.71 mM).

`CC(C)C[C@H](NC(=O)[C@@H](C)NC(=O)[C@@H](CCC(=O)O)NC(=O)[C@@H](Cc1ccc(O)cc1)NC(=O)[C@@H](CCC(=O)O)NC(=O)[C@@H](CO)NC(=O)[C@H](NC(=O)[C@@H](N)Cc1ccc(-c2ccccc2)cc1)[C@H](C)O)C(=O)N[C@@H](CCCCN)C(=O)N[C@@H](CCCCN)C(=O)O` [Peptide 213.29, (Bip)tseyeaLKK] (H-[Bip][dT][dS][dE][dY][dE][dA]LKK-OH; N-terminus and C-terminus assumed) registered a solubility of 15.6 mg/mL (≈ 12.1 mM).

`CC(C)C[C@@H](NC(=O)[C@@H](CO)NC(=O)[C@@H](CCC(=O)O)NC(=O)[C@@H](Cc1ccc(O)cc1)NC(=O)[C@@H](CCC(=O)O)NC(=O)[C@@H](CO)NC(=O)[C@H](NC(=O)[C@H](N)Cc1ccc(-c2ccccc2)cc1)[C@H](C)O)C(=O)N[C@@H](CCCCN)C(=O)O` [Peptide 213.23, (bip)tseyeslK] (H-[dBip][dT][dS][dE][dY][dE][dS][dL]K-OH; N-terminus and C-terminus assumed) gave a solubility of 13 mg/mL (≈ 11 mM). This solubility and that of the molecule before are within 1.5-fold of each other.

In turn, `CC(C)C[C@@H](NC(=O)[C@@H](C)NC(=O)[C@@H](CCC(=O)O)NC(=O)[C@@H](Cc1ccc(O)cc1)NC(=O)[C@@H](CCC(=O)O)NC(=O)[C@@H](CO)NC(=O)[C@H](NC(=O)[C@H](N)Cc1ccc(-c2ccccc2)cc1)[C@H](C)O)C(=O)NCC(=O)N[C@@H](CCCCN)C(=O)N[C@@H](CCCCN)C(=O)O` [Peptide 213.30, (bip)tseyealGKK] (H-[dBip][dT][dS][dE][dY][dE][dA][dL]GKK-OH; N-terminus and C-terminus assumed) gave a solubility of 16 mg/mL (≈ 11.9 mM). The solubility values of the last two molecules are within 1.5-fold of each other.

`CC(C)C[C@@H](NC(=O)[C@@H](C)NC(=O)[C@@H](CCC(=O)O)NC(=O)[C@@H](Cc1ccc(O)cc1)NC(=O)[C@@H](CCC(=O)O)NC(=O)[C@@H](CO)NC(=O)[C@H](NC(=O)[C@H](N)Cc1ccc(-c2ccccc2)cc1)[C@H](C)O)C(=O)N[C@@H](CCCCN)C(=O)N[C@@H](CCCCN)C(=O)O` [Peptide 213.21, (bip)tseyealKK] (H-[dBip][dT][dS][dE][dY][dE][dA][dL]KK-OH; N-terminus and C-terminus assumed) yielded a solubility of 24.5 mg/mL (≈ 19 mM).

The molecule `CC(C)C[C@@H](NC(=O)[C@@H](C)NC(=O)[C@@H](CCC(=O)O)NC(=O)[C@@H](Cc1ccc(O)cc1)NC(=O)[C@@H](CCC(=O)O)NC(=O)[C@@H](CO)NC(=O)[C@H](NC(=O)[C@H](N)Cc1ccc(-c2ccccc2)cc1)[C@H](C)O)C(=O)N[C@@H](CCCCN)C(=O)O` [Peptide 213.19, (bip)tseyealK] (H-[dBip][dT][dS][dE][dY][dE][dA][dL]K-OH; N-terminus and C-terminus assumed) came in with a solubility of 2.8 mg/mL (≈ 2.41 mM).

`CC(C)C[C@@H](NC(=O)CNC(=O)[C@@H](CCC(=O)O)NC(=O)[C@@H](Cc1ccc(O)cc1)NC(=O)[C@@H](CCC(=O)O)NC(=O)[C@@H](CO)NC(=O)[C@H](NC(=O)[C@H](N)Cc1ccc(-c2ccccc2)cc1)[C@H](C)O)C(=O)N[C@@H](CCCCN)C(=O)N[C@@H](CCCCN)C(=O)O` [Peptide 213.22, (bip)tseyeglKK] (H-[dBip][dT][dS][dE][dY][dE]G[dL]KK-OH; N-terminus and C-terminus assumed): the concentration in solution (solubility) was 24.5 mg/mL (≈ 19.2 mM).

`CC(C)C[C@@H](NC(=O)[C@@H](CO)NC(=O)[C@@H](CCC(=O)O)NC(=O)[C@@H](Cc1ccc(O)cc1)NC(=O)[C@@H](CCC(=O)O)NC(=O)[C@@H](CO)NC(=O)[C@H](NC(=O)[C@H](N)Cc1ccc(-c2ccccc2)cc1)[C@H](C)O)C(=O)N[C@@H](CCCCN)C(=O)N[C@@H](CCCCN)C(=O)O` [Peptide 213.24, (bip)tseyeslKK] (H-[dBip][dT][dS][dE][dY][dE][dS][dL]KK-OH; N-terminus and C-terminus assumed) had a solubility of 23.5 mg/mL (≈ 18 mM). The solubility values of the last two molecules are within 1.5-fold of each other.

A further data set deals with rat model of ischemic nephropathy. As to the kind of experiment: Rat model of ischemic nephropathy (bilateral renal artery occlusion): GFR, urine flow, renal plasma flow, BUN/creatinine, histology. It is filed as in vivo, Sprague-Dawley rats. To be noted: 213.29 1 mg/kg iv bolus; fenoldopam 0.6 μg/kg iv bolus then 0.6 μg/kg/h. The method, then: Bilateral clamping of the renal arteries for 30-60 minutes results in the […] of the kidneys and associated sequelae such as a dramatic decrease in glomerular filtration rate, urine output and tubular cell death. This model reproduces some important consequences of oligouric renal failure in humans. The efficacy of various 213.15 derivatives in reversing the renal damage was measured.
Sprague-Dawley rats (250-300 g) were anesthetized and the jugular vein was canulated for infusion with the peptide or with saline. In addition, the carotid artery was canulated to measure the arterial blood pressure with a pressure transducer (Gould) and to collect blood samples. The urinary bladder was canulated to collect urine. After catheterization, an infusion (1.6 ml/hr) of a mixture of [^3H] inulin (8 μCi/hr), [^14C] aminohippuric acid (0.8 μCi/hr) and anesthetics (ketamine and xylazine; 9:1 w:w; 0.095 ml/ml) was started. The animals were allowed to stabilize for a further 40 minutes. Two urine samples were collected over 10 minute periods, (from 40 to 50 minutes, and from 50 to 60 minutes) to assess the stability of the basal GFR. Blood samples were collected at 45 and 55 minutes respectively. The left and right renal arteries were then clamped for a period of 60 minutes to induce an acute renal ischemia. After the ischemic period, the animals were treated with peptides, 213.19-213.30, (1 mg/kg iv bolus) or with saline via the jugular vein. Blood and urine samples were then collected every 20 minutes for an additional period of 2 hours. Glomerular filtration rates (GFR) and urine flow rates, (measured by the [^3H] inulin method) as well as renal plasma flow (measured by the [^14C] aminohippuric acid method), were determined at different times and averaged for a 60 minute (20-80 minutes following the drug administration) period.
The efficacy of fenoldopam and 213.29, in improving kidney function in the rat model of ischemic nephropathy (described in Example 2) was compared. […]
In the case of `Oc1ccc(C2CNCCc3c2cc(O)c(O)c3Cl)cc1` (centres unmarked) [fenoldopam, Fenoldopam], the “renal perfusion and GFR” value was “only 213.29 was able to improve renal perfusion and GFR significantly”; the urine output result is “increased urine output to a similar extent”.

The data set is the same for the next values; noted with them: after 72 hours; 213.29 1 mg/kg iv bolus; fenoldopam 0.6 μg/kg bolus then 0.6 μg/kg/h.
As for `Oc1ccc(C2CNCCc3c2cc(O)c(O)c3Cl)cc1` (centres unmarked) [fenoldopam, Fenoldopam], the “blood urea nitrogen (BUN) and serum creatinine levels” value was “equally efficacious in reducing BUN and creatinine levels”.
